Read-outs that look alike come from different tables or passages of the source.

Targets include FES (Homo sapiens, UniProt P07332); IGF1R (Homo sapiens, UniProt P08069); MAP4K5 (Homo sapiens, UniProt Q9Y4K4); PIK3CA(H1047L) (Homo sapiens, UniProt P42336, H1047L); PLK2 (Homo sapiens, UniProt Q9NYY3).
Common to all, as to assay: biochemical
Common to all, as to parameters: DiscoveRx KINOMEscan active site-directed competition binding; percent of control kinase bound to immobilised ligand

The next assay addresses T1, CHEK1 (Homo sapiens, UniProt O14757).
T1 sequence (O14757 1-476): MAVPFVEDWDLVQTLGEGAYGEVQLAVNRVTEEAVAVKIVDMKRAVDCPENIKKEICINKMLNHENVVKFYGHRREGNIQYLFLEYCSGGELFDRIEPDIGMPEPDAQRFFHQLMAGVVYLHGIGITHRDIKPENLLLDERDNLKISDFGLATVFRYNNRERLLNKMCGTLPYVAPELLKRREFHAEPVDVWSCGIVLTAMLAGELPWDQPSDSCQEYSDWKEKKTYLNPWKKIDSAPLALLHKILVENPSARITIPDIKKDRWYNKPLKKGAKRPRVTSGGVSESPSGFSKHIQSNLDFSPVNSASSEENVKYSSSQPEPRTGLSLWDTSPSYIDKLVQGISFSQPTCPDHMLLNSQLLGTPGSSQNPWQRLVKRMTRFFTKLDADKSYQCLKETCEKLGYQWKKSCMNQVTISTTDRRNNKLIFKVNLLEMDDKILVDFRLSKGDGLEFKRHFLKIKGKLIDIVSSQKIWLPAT

The next assay addresses T2, STK36 (Homo sapiens, UniProt Q9NRP7).
T2 sequence (Q9NRP7 1-1315): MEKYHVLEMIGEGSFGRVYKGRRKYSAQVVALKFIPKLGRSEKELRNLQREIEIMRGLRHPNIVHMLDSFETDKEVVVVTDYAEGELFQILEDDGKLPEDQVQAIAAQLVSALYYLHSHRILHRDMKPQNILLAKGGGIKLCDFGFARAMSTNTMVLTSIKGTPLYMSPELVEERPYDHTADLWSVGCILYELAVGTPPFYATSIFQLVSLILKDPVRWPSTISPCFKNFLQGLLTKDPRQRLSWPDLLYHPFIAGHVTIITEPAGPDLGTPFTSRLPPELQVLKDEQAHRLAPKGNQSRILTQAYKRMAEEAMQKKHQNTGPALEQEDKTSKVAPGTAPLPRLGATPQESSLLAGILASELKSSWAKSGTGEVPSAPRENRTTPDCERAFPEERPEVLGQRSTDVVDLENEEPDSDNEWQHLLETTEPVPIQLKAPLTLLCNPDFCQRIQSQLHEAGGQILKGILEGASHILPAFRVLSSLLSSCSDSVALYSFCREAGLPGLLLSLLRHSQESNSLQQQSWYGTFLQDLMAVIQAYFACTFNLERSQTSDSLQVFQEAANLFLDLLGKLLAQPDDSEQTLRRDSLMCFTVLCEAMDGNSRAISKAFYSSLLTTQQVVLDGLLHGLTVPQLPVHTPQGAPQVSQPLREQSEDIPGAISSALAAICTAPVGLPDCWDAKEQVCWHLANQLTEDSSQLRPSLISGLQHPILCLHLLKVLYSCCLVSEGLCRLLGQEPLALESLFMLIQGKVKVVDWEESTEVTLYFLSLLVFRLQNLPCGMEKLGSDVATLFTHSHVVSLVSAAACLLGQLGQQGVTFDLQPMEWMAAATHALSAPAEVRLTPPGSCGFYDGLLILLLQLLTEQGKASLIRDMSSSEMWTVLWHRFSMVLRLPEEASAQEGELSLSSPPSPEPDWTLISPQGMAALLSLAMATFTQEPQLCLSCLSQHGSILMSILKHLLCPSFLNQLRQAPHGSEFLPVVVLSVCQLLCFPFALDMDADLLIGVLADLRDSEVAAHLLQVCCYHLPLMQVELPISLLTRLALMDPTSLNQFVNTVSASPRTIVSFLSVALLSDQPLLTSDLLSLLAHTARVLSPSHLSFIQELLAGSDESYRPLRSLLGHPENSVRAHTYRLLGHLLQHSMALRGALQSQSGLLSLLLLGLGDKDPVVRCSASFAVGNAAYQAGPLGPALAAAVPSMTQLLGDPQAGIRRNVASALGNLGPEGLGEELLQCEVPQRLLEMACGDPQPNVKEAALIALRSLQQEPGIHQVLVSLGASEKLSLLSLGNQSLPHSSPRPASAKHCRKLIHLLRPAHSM

The target of assay [1] is T3, TYK2(JH1domain-catalytic) (Homo sapiens, UniProt P29597).
T3 construct: JH1domain-catalytic
T3 sequence (P29597 whole entry): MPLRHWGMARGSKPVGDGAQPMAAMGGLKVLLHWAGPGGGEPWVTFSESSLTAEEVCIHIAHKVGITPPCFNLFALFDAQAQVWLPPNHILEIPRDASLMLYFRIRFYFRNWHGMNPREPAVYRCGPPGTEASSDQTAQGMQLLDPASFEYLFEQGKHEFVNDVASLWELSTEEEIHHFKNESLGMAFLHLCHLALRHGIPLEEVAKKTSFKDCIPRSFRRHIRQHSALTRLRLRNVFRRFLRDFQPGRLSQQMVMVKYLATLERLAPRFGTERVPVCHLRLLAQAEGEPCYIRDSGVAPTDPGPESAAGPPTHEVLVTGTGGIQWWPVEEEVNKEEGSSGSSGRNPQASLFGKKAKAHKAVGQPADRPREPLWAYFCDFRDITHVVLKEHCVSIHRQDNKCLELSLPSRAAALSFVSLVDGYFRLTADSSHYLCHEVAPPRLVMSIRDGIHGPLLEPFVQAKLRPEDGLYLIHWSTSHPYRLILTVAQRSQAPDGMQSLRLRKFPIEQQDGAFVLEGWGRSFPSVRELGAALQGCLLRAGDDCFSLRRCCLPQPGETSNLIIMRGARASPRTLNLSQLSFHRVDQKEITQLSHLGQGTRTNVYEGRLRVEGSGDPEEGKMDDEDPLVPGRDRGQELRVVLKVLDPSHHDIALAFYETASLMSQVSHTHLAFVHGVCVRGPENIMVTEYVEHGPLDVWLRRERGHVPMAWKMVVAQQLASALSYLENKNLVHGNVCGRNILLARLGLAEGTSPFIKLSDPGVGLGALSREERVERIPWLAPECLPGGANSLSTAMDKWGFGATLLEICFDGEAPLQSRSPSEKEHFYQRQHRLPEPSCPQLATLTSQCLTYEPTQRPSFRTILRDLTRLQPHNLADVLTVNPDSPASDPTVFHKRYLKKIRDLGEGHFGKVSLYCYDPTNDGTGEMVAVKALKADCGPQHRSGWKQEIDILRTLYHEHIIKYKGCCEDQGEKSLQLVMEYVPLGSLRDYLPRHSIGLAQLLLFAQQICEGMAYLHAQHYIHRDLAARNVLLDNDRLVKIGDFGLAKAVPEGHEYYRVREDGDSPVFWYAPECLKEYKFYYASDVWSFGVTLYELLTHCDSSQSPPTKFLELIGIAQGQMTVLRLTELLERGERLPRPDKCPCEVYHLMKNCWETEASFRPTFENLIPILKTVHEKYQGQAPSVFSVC

[2] abbreviates: read-out: Niraparib (MK-4827) / %Ctrl @ 10000nM.
Where [3] appears, read: read-out: Olaparib / %Ctrl @ 10000nM.
The mark [4] stands for this setting: read-out: Rucaparib / %Ctrl @ 10000nM, binding competition, % of control.
Where [5] appears, read: read-out: Talazoparib (BMN 673) / %Ctrl @ 10000nM.

Chain of MAP4K5 (Q9Y4K4 whole entry): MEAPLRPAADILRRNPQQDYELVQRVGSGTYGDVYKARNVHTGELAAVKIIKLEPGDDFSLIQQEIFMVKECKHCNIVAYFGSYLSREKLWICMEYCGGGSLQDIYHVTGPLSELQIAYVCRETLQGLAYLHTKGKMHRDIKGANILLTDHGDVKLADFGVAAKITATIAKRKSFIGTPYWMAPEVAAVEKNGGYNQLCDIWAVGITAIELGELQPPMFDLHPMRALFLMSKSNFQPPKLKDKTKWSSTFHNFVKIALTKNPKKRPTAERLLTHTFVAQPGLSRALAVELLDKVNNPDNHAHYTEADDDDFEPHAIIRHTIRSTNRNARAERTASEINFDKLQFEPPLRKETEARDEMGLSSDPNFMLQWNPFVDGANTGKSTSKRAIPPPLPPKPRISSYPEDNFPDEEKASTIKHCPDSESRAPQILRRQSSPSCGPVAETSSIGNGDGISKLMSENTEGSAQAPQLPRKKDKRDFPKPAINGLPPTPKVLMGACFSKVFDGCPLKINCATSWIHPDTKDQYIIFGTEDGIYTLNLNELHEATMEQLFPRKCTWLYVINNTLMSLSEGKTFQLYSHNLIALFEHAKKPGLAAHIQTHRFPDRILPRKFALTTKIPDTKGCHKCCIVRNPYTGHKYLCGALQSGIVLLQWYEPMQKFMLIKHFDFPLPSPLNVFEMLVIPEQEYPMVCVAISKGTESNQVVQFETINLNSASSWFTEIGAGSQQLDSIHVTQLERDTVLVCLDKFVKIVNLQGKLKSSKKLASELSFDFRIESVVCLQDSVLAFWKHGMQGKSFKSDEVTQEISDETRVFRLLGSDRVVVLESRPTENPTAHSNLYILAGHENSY
Chain of PIK3CA(H1047L) (P42336 whole entry H1047L): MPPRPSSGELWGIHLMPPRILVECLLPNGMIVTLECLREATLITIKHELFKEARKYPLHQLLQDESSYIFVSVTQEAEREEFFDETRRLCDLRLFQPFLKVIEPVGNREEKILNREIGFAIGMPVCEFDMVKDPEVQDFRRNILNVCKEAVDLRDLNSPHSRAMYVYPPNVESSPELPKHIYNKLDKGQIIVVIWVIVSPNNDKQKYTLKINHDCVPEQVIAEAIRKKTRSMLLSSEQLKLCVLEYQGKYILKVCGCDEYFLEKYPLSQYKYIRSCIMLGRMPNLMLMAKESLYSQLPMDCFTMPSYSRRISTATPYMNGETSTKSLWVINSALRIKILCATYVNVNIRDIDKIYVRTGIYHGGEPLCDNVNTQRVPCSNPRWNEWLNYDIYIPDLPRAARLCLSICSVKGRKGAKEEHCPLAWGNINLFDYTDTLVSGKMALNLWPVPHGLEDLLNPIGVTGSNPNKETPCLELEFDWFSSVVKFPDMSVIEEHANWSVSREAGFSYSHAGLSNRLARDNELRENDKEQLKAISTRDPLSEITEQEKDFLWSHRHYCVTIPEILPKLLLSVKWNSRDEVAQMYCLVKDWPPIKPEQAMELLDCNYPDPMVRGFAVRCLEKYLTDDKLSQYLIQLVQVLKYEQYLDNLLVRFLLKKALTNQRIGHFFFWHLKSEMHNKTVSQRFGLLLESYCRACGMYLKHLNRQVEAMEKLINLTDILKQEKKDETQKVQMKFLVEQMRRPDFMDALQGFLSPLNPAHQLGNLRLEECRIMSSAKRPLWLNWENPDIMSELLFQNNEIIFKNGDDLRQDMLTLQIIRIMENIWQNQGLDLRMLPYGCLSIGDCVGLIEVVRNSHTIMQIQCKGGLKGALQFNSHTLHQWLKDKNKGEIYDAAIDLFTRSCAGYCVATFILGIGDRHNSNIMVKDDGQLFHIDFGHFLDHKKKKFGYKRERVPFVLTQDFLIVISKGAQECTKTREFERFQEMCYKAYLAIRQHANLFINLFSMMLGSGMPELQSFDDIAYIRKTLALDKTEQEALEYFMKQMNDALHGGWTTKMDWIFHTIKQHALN
Chain of PLK2 (Q9NYY3 whole entry): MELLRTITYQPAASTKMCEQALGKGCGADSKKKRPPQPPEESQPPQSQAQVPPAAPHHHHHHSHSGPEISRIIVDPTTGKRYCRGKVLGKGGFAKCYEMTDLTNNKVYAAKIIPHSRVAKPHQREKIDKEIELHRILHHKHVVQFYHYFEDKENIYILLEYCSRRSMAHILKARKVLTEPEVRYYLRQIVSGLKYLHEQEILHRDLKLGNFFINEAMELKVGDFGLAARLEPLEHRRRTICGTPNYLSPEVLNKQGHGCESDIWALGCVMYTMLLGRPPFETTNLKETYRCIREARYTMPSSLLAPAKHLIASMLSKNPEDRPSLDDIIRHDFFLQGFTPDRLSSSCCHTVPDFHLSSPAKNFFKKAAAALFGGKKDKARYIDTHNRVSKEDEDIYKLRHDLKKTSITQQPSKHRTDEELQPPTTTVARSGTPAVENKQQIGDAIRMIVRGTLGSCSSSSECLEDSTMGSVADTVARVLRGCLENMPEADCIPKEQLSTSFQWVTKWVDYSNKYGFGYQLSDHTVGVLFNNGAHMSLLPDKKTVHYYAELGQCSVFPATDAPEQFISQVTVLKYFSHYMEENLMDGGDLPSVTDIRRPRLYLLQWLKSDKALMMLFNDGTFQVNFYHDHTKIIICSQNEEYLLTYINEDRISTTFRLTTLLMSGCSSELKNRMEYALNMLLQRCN
Chain of FES (P07332 whole entry): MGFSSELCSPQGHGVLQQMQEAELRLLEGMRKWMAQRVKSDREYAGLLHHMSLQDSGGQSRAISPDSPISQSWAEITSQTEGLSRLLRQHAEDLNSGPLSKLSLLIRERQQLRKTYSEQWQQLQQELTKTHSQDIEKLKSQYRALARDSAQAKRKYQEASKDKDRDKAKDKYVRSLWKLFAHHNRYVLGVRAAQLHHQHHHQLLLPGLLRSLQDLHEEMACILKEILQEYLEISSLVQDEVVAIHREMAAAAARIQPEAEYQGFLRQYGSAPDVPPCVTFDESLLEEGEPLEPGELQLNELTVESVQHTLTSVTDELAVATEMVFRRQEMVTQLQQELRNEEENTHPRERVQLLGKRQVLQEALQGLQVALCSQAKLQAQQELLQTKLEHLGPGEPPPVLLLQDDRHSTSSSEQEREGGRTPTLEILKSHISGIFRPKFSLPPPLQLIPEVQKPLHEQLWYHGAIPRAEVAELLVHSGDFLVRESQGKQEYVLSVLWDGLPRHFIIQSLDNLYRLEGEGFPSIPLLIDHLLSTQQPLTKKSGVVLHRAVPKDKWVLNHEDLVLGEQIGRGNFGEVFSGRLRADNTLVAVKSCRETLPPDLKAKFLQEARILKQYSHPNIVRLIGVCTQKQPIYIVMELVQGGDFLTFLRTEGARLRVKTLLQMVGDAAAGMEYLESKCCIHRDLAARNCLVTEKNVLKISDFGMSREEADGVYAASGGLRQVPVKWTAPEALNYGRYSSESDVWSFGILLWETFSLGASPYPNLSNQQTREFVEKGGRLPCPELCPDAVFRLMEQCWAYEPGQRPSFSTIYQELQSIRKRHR

Take `NC(=O)c1cccc2cn(-c3ccc([C@@H]4CCCNC4)cc3)nc12` [Niraparib]: the percent of control binding at 10 µM at CHEK1 (setting [2]) came out at 72%; on FES (setting [2]) it was 83%; on IGF1R (setting [2]), 97%; on MAP4K5 (setting [2]), 100%; at PIK3CA(H1047L) (setting [2]), 100%; at PLK2 (setting [2]) it was 92%. For the same compound, the percent of control binding at 10 µM amounted to 88% on STK36 (setting [2]) and 96% in assay [1] (setting [2]).
Regarding `O=C(c1cc(Cc2n[nH]c(=O)c3ccccc23)ccc1F)N1CCN(C(=O)C2CC2)CC1` [Olaparib], the percent of control binding at 10 µM on CHEK1 (setting [3]) stood at 79%; at FES (setting [3]), 92%; on IGF1R (setting [3]) it was 95%; at MAP4K5 (setting [3]), 96%; at PIK3CA(H1047L) (setting [3]), 87%; at PLK2 (setting [3]), 95%. Also, the values for the percent of control binding at 10 µM (on STK36 (setting [3]); in assay [1] (setting [3])) were 96% and 84%, respectively.
Consider `CNCc1ccc(-c2[nH]c3cc(F)cc4c3c2CCNC4=O)cc1` [Rucaparib], for which the percent of control binding at 10 µM on CHEK1 (setting [4]) worked out at 100%; at FES (setting [4]), 94%; on IGF1R (setting [4]), 98%; at MAP4K5 (setting [4]), 98%; at PIK3CA(H1047L) (setting [4]), 87%; on PLK2 (setting [4]), 76%. For the same compound, the percent of control binding at 10 µM at STK36 (setting [4]) came to 69%; in assay [1] (setting [4]), 66%.
`Cn1ncnc1[C@H]1c2n[nH]c(=O)c3cc(F)cc(c23)N[C@@H]1c1ccc(F)cc1` [Talazoparib]: the percent of control binding at 10 µM was 86% at CHEK1 (setting [5]); 98% on FES (setting [5]); 87% at IGF1R (setting [5]); 100% at MAP4K5 (setting [5]); 100% on PIK3CA(H1047L) (setting [5]); 100% on PLK2 (setting [5]). The percent of control binding at 10 µM at STK36 (setting [5]) worked out at 56%; in assay [1] (setting [5]) it was 94%.

The record behind these values is article PMC7026418, “The kinase polypharmacology landscape of clinical PARP inhibitors” (Scientific Reports, 2020).
